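Results reflect a 48-hour exposure of cells in 96-well plates to compound at five concentrations. TGI is the concentration that stops growth completely.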
Columns and labels:
Assay in all cases: growth of human tumour cells (NCI), 48 h
786-0 renal = test system: 786-0 renal
A498 renal = test system: A498 renal
ACHN renal = test system: ACHN renal
BT-549 breast = test system: BT-549 breast
CAKI-1 renal = test system: CAKI-1 renal
CCRF-CEM leukemia = test system: CCRF-CEM leukemia
COLO 205 colon = test system: COLO 205 colon
DU-145 prostate = test system: DU-145 prostate
EKVX NSCLC = test system: EKVX NSCLC
HCC-2998 colon = test system: HCC-2998 colon
HCT-116 colon = test system: HCT-116 colon
HCT-15 colon = test system: HCT-15 colon
HOP-62 NSCLC = test system: HOP-62 NSCLC
HOP-92 NSCLC = test system: HOP-92 NSCLC
HS 578T breast = test system: HS 578T breast
HT29 colon = test system: HT29 colon
IGROV1 ovarian = test system: IGROV1 ovarian
K-562 leukemia = test system: K-562 leukemia
KM12 colon = test system: KM12 colon
LOX IMVI melanoma = test system: LOX IMVI melanoma
MCF7 breast = test system: MCF7 breast
MDA-MB-231 breast = test system: MDA-MB-231 breast
MDA-MB-435 = test system: MDA-MB-435
MDA-N = test system: MDA-N
MOLT-4 leukemia = test system: MOLT-4 leukemia
NCI-H226 lung = test system: NCI-H226 lung
NCI-H23 lung = test system: NCI-H23 lung
NCI-H460 lung = test system: NCI-H460 lung
NCI/ADR-RES ovarian = test system: NCI/ADR-RES ovarian
OVCAR-3 ovarian = test system: OVCAR-3 ovarian
OVCAR-4 ovarian = test system: OVCAR-4 ovarian
PC-3 prostate = test system: PC-3 prostate
RPMI-8226 leukemia = test system: RPMI-8226 leukemia
RXF 393 renal = test system: RXF 393 renal
SF-268 CNS = test system: SF-268 CNS
SF-295 CNS = test system: SF-295 CNS
SF-539 CNS = test system: SF-539 CNS
SK-MEL-2 melanoma = test system: SK-MEL-2 melanoma
SK-MEL-28 melanoma = test system: SK-MEL-28 melanoma
SK-MEL-5 melanoma = test system: SK-MEL-5 melanoma
SK-OV-3 ovarian = test system: SK-OV-3 ovarian
SN12C renal = test system: SN12C renal
SNB-75 CNS = test system: SNB-75 CNS
SR leukemia = test system: SR leukemia
SW-620 colon = test system: SW-620 colon
T-47D breast = test system: T-47D breast
TK-10 renal = test system: TK-10 renal
U251 CNS = test system: U251 CNS
UACC-257 melanoma = test system: UACC-257 melanoma
UACC-62 melanoma = test system: UACC-62 melanoma
UO-31 renal = test system: UO-31 renal

Measured: TGI

COC(OC)C(O)C1OC=CC1n1cnc2c(N)ncnc21 (stereo unspecified)
> 100 µM: all assays above

From PubChem BioAssay (NCI)
